Measurements as given in ChEMBL document CHEMBL3243976, “Ring D oxygenated Spirolactones. Characterization of human metabolic product of spironolactone” (1977).

Columns and labels:
Type in all cases: functional, Urine
Rattus norvegicus [1] = assay: Antimineralocorticoid activity in adrenalectomized rat assessed as urinary log (Na X 10)/K at 2.4 mg, sc administered post deoxycorticosterone acetate treatment relative to control
Rattus norvegicus [2] = assay: Antimineralocorticoid activity in sc dosed adrenalectomized rat assessed as urinary log (Na X 10)/K administered post deoxycorticosterone acetate treatment relative to spironolactone
Rattus norvegicus [3] = assay: Antimineralocorticoid activity in po dosed adrenalectomized rat assessed as urinary log (Na X 10)/K administered post deoxycorticosterone acetate treatment relative to spironolactone
Rattus norvegicus [4] = assay: Antimineralocorticoid activity in adrenalectomized rat assessed as urinary log (Na X 10)/K at 2.4 mg, sc administered post deoxycorticosterone acetate treatment relative to spironolactone

Structure (SMILES)	T/C (Rattus norvegicus [1])	also measured
C[C@]12CCC(=O)C=C1C=CC1=C3CC[C@@]4(CCC(=O)O4)[C@@]3(C)CC[C@@H]12	0.82	–
C[C@]12CCC(=O)C=C1C=C[C@@H]1[C@@H]2CC[C@@]2(C)[C@H]1CC[C@@]21CCC(=O)O1 [CANRENONE]	–	Activity (Rattus norvegicus [2]): 38%; Activity (Rattus norvegicus [3]): 35%
C[C@]12CCC(=O)C=C1C=C[C@@H]1[C@@H]2CC[C@@]2(C)[C@H]1C[C@H](O)[C@@]21CCC(=O)O1	0.84	–
C[C@]12CCC(=O)C=C1C=C[C@H]1[C@@H]3[C@@H](O)C[C@@]4(CCC(=O)O4)[C@@]3(C)CC[C@@H]12	0.62	–
C[C@]12CCC(=O)C=C1C=C[C@@H]1[C@@H]2CC[C@@]2(C)[C@H]1C(=O)C[C@@]21CCC(=O)O1	1.01	Activity (Rattus norvegicus [4]): 15%
C[C@]12CCC(=O)C=C1C=C[C@H]1C3=CC[C@@]4(CCC(=O)O4)[C@@]3(C)CC[C@@H]12	0.67	–
CC(=O)O[C@H]1C[C@@]2(CCC(=O)O2)[C@@]2(C)CC[C@H]3[C@@H](C=CC4=CC(=O)CC[C@@]43C)[C@H]12	0.77	–
